Data as given in patent US4705805A, “Antithrombotic agent” (priority 1978, dated 1987).
In brackets after ≈: the same amount, converted by molar mass. Like-named read-outs stand apart in the source and are kept apart here.

Key:
[1] = test system: mice, death by ADP injection; test: prevention of death of mice by ADP addition (in vivo), oral administration; conditions: for Mortality / Score (mortality): oral, 100 mg/Kg, ADP i.v. after one hour
Procedure: In this example, prevention of death of mice by ADP addition (in vivo) is tested. It is shown that intravenous administration of a great amount of ADP to mice causes aggregated blood platelets to be captured in the pulmonary capillaries so that the mice die of respiratory distress.
The test is carried out according to Roba's method. [Eur. J. Pharmacol. 37, 265-274 (1976)]. Specifically, CMC solution (0.3%) and CMC suspension containing the test compound and control compounds are orally administered to mice in a ratio of 0.1 ml/10 g (body weight). After one hour, an aqueous solution of ADP (60 mg/ml) is injected into the tail vein in a volume of 0.1 ml/10 g (body weight) every 10 seconds and the mortality is calculated.

[2] = test system: rabbit blood platelets (platelet rich plasma), collagen-induced aggregation; test: inhibition of platelet aggregation in rabbit platelet rich plasma (in vitro), induced by collagen; type: cell-based; conditions: Oryctolagus cuniculus, Platelet; for inhibition at 10 µg/mL: 10 μg/ml; for inhibition at 3 µg/mL: 3 μg/ml; for inhibition at 1 µg/mL: 1 μg/ml
Procedure: (§1) In this example, the inhibition of platelet aggregation in rabbit platelet rich plasma (in vitro) is tested.
(§2) In this test, 9 vol. of blood is sampled from the carotid artery of rabbits (2 to 2.5 Kg) and placed in a silicon-coated flask containing 1 vol. of 3.8% sodium citrate. The thus obtained blood is centrifuged at 1,000 rpm for 15 minutes to obtain platelet rich plasma (referred to as "PRP" hereinafter). The aggregation of blood platelets is observed using an aggregometer (made by Bryston Co.) and the degree of aggregation after the addition of aggregation promoting substances is measured by nephelometry, i.e., through increase in light transmission.
(§3) The PRP (0.9 ml) is placed in a silicon-coated cuvett of the aggregometer. Then, 0.05 ml of physiological saline solution containing various concentrations of test reagents or control reagents is added and the mixture is allowed to stand for one minute. Compounds promoting aggregation are then added and the absorbancy of the solution is measured and the percent inhibition of aggregation is calculated according to the following equation: [formula] C: Transmittancy showing the maximum percent aggregation by physiological saline solution
(§4) D: Transmittancy showing the maximum percent aggregation by sample
(§5) Test for the inhibition of platelet aggregation induced by ADP, collagen and thrombin.

[3] = test system: rabbit blood platelets (platelet rich plasma), ADP-induced aggregation; test: inhibition of platelet aggregation in rabbit platelet rich plasma (in vitro), induced by ADP; type: cell-based; conditions: Oryctolagus cuniculus, Platelet; for inhibition at 30 µg/mL / inhibition at 100 µg/mL / inhibition at 10 µg/mL / inhibition at 1 µg/mL / inhibition at 3 µg/mL: read-out: percentage of inhibition, ADP; for inhibition at 10 µg/mL: 10 μg/ml; for inhibition at 1 µg/mL: 1 μg/ml; for inhibition at 3 µg/mL: 3 μg/ml
Procedure: as §1, §2, §3, §4, §5

[4] = acute toxicity, Behrens-Karber's method; type: in vivo; conditions: in vivo; mouse, oral
Procedure: (§6) In this example, the acute toxicity of compounds of the invention is determined by Behrens-Karber's method using, 5 male dd-strain for each group weighing 20±1 g. A 0.3% CMC suspension of the test compound (concentration of the test compound: 100 mg/ml) is then orally administered to each mouse.

[5] = test system: human platelet rich plasma, collagen-induced aggregation; test: inhibition of platelet aggregation in human platelet rich plasma, induced by collagen; type: cell-based; conditions: human PRP, read-out: percentage inhibition, collagen; for inhibition at 10 µg/mL: 10 μg/ml; for inhibition at 30 µg/mL: 30 μg/ml; for inhibition at 100 µg/mL: 100 μg/ml
Procedure: as §2, §3, §4
(§7) In this example, the same procedures are repeated as in Example 10 except that human platelet rich plasma is used in place of rabbit platelet rich plasma.

[6] = test system: human platelet rich plasma, ADP-induced aggregation; test: inhibition of platelet aggregation in human platelet rich plasma, induced by ADP; type: cell-based; conditions: human PRP, read-out: percentage inhibition, ADP; for inhibition at 30 µg/mL: 30 μg/ml; for inhibition at 100 µg/mL: 100 μg/ml; for inhibition at 10 µg/mL: 10 μg/ml
Procedure: as §2, §3, §4, §7

solubility = type: physicochemical
[7] = test system: mice (male dd-strain), death by sodium arachidonate; test: prevention of death of mice by sodium arachidonate; type: in vivo; conditions: sodium arachidonate 50 mg/Kg i.v. two hours thereafter
Procedure: When a large amount of arachidonic acid is intravenously administrated to a mouse, blood platelet aggregates are formed and caught by the microvasculature system of the lung. As a result, the mouse expires due to dyspnea.
To examine the effect of a medicine in vivo, the medicine is orally administered to test animals and thereafter arachidonic acid is administered.
In this example, the test was carried out according to the method by Uzunova A. D. et al. [Prostaglandins 13, p. 995 (1977)] Specifically, a CMC suspension consisting of 0.3% CMC solution and a medicine (test compound and reference medicine) was orally administered to mice (male dd-strain, 22-24 g). Two hours thereafter, 50 mg/Kg of sodium arachidonate was intravenously administered to the mice.

mouse (male dd-strain) = test: acute toxicity, Behrens-Karber's method; type: in vivo; conditions: oral
Procedure: as §6

[8] = test system: rabbit blood platelets (platelet rich plasma), thrombin-induced aggregation; test: inhibition of platelet aggregation in rabbit platelet rich plasma (in vitro), induced by thrombin; type: cell-based; conditions: Oryctolagus cuniculus, rabbit PRP, read-out: percentage of inhibition, thrombin
Procedure: as §1
as §2, with “The” for “In this test, 9 vol. of blood is sampled from the carotid artery of rabbits (2 to 2.5 Kg) and placed in a silicon-coated flask containing 1 vol. of 3.8% sodium citrate. The”
as §3, §4, §5

[9] = read-out: percentage of inhibition, collagen
[10] = rabbit PRP, read-out: percentage of inhibition, collagen
[11] = rabbit PRP, 30 μg/ml, read-out: percentage of inhibition, collagen
[12] = rabbit PRP, 100 μg/ml, read-out: percentage of inhibition, collagen
[13] = rabbit PRP, ADP 10^-5 M, 100 μg/ml
[14] = rabbit PRP, ADP 10^-5 M, 30 μg/ml

SMILES	LD50 [4] [mg/kg]	inhibition at 10 µg/mL [2, 10] [%]	inhibition at 30 µg/mL [2, 11] [%]	inhibition at 100 µg/mL [2, 12] [%]	inhibition at 10 µg/mL [5] [%]	inhibition at 30 µg/mL [5] [%]	inhibition at 100 µg/mL [5] [%]	inhibition at 30 µg/mL [6] [%]	inhibition at 100 µg/mL [6] [%]	inhibition at 3 µg/mL [2, 10] [%]	inhibition at 10 µg/mL [6] [%]	inhibition at 10 µg/mL ([3]; rabbit PRP, ADP 10^-5 M) [%]	inhibition at 30 µg/mL [3, 14] [%]	inhibition at 3 µg/mL ([3]; rabbit PRP, ADP 10^-5 M) [%]	further results
COc1ccc(Cc2nccc3cc(OC)c(OC)cc23)cc1OC [papaverine, reference compound]	–	–	–	–	–	–	–	–	–	–	–	–	–	–	effect in reducing mortality (ADP) ([1]; in words, oral or intravenous administration, Table 3): ineffective; Mortality [1]: 60%; Score (mortality) [1]: 6/10; inhibition at 30 µg/mL [2, 9]: 34%; inhibition at 100 µg/mL [2, 9]: 100%; inhibition at 30 µg/mL [3]: 14%; inhibition at 100 µg/mL [3]: 99%
COCCNC(=O)c1ccccc1SSc1ccccc1C(=O)NCCOC [Compound XVIII, 2,2'-dithiobis(N-2-methyloxyethylbenzamide)]	≥ 1000	40	100	100	10	45	100	20	65	–	–	–	–	–	inhibition at 100 µg/mL [3, 13]: 75%
O=C(NCO)c1ccccc1SSc1ccccc1C(=O)NCO [Compound XV, 2,2'-dithiobis(N-hydroxymethylbenzamide)]	–	56	100	–	29	68	100	45	90	22	5	0	46	–	Solubility in DMSO, DMF (solubility; DMSO, DMF, etc.): Soluble; Solubility in ethanol, water (solubility; ethanol, water, and the like): poorly soluble; Solubility in ether, benzene, chloroform (solubility; ether, benzene, chloroform, and the like): Insoluble
O=C(NCCO)c1ccccc1SSc1ccccc1C(=O)NCCO [Compound III, 2,2'-dithiobis(N-2-hydroxyethylbenzamide)]	≥ 2000	100	–	–	20	66	100	43	98	88.5	15	69.1	100	33.4	Mortality ([7]; oral 50 mg/Kg): 70%; Score (mortality) ([7]; oral 50 mg/Kg): 7/10; Mortality ([7]; oral 100 mg/Kg): 40%; Score (mortality) ([7]; oral 100 mg/Kg): 4/20; Mortality [1]: 20%; Score (mortality) [1]: 2/10; mortality rate (mouse (male dd-strain); 1 g/Kg): 0/5; mortality rate (mouse (male dd-strain); 2 g/Kg): 1/5; mortality rate (mouse (male dd-strain); 3 g/Kg): 4/5; mortality rate (mouse (male dd-strain); 4 g/Kg): 4/5; IC50 ([2]; rabbit PRP): 1.1 µg/mL (≈ 2.8 µM); inhibition at 0.3 µg/mL ([2]; rabbit PRP, 0.3 μg/ml, read-out: percentage of inhibition, collagen): 11%; inhibition at 1 µg/mL [2, 10]: 39.2%; IC50 ([3]; rabbit PRP, ADP 10^-5 M): 4.8 µg/mL (≈ 12.2 µM); inhibition at 1 µg/mL ([3]; rabbit PRP, ADP 10^-5 M): 21.3%
CCCCCCCCCCCC(=O)OCCNC(=O)c1ccccc1SSc1ccccc1C(=O)NCCOC(=O)CCCCCCCCCCC [Compound XIX, 2,2'-dithiobis(N-2-dodecanoyloxyethylbenzamide)]	≥ 1000	–	54	100	–	16	46	5	35	–	–	–	12	–	inhibition at 100 µg/mL [3, 13]: 72%
O=C(NCCNCCO)c1ccccc1SSc1ccccc1C(=O)NCCNCCO [Compound XXV, 2,2'-dithiobis[N-2-(2-hydroxyethylamino)-ethylbenzamide]]	≥ 1000	–	42	–	–	4	25	–	10	–	–	–	10	–	–
O=C(NCCCN1CCOCC1)c1ccccc1SSc1ccccc1C(=O)NCCCN1CCOCC1 [Compound XL, 2,2'-dithiobis(N-3-morpholinopropylbenzamide)]	≥ 1000	98	100	100	40	100	100	85	100	21	65	69	100	26	–
CC(O)CNC(=O)c1ccccc1SSc1ccccc1C(=O)NCC(C)O (stereo not shown) [Compound V, 2,2'-dithiobis(N-2-hydroxypropylbenzamide)]	≥ 3000	100	–	–	39	100	–	81	–	83.5	61	54	90	25.5	Mortality ([7]; oral 25 mg/Kg): 40%; Score (mortality) ([7]; oral 25 mg/Kg): 8/20; Mortality ([7]; oral 50 mg/Kg): 20%; Score (mortality) ([7]; oral 50 mg/Kg): 4/20; Mortality ([7]; oral 100 mg/Kg): 20%; Score (mortality) ([7]; oral 100 mg/Kg): 4/20; mortality rate (mouse (male dd-strain); 2 g/Kg): 0/5; mortality rate (mouse (male dd-strain); 3 g/Kg): 2/5; mortality rate (mouse (male dd-strain); 4 g/Kg): 4/5; inhibition at 1 µg/mL [2, 10]: 25.7%; inhibition at 3 µg/mL ([5]; 3 μg/ml): 13%; inhibition at 3 µg/mL ([6]; 3 μg/ml): 47%; inhibition at 1 µg/mL ([8]; 1 μg/ml): 10%; inhibition at 3 µg/mL ([8]; 3 μg/ml): 57%; inhibition at 10 µg/mL ([8]; 10 μg/ml): 89.6%; inhibition at 30 µg/mL ([8]; 30 μg/ml): 95%; IC50 ([3]; rabbit PRP, ADP 10^-5 M): 7.4 µg/mL (≈ 17.6 µM); inhibition at 1 µg/mL ([3]; rabbit PRP, ADP 10^-5 M): 12.5%
